The record followed here is patent US8119628B2, “Pyrrolidine fused indolobenzadiazepine HCV NS5B inhibitors” (Bristol-Myers Squibb Company, priority 2008, dated 2012).

The test system of one assay is HCV replicon cells. The assay can be described thus: HCV FRET assay in HCV replicon cells. Format: cell-based. The following applies: Hepatitis C virus. From the text: FRET Assay Preparation. To perform the HCV FRET screening assay, 96-well cell culture plates were used. The FRET peptide (Anaspec, Inc.) (Taliani et al., Anal. Biochem. 1996, 240, 60-67) contains a fluorescence donor, EDANS, near one end of the peptide and an acceptor, DABCYL, near the other end. The fluorescence of the peptide is quenched by […] resonance energy transfer (RET) between the donor and the acceptor, but as the NS3 protease cleaves the peptide the products are released from RET quenching and the fluorescence of the donor becomes apparent. The assay reagent was made as follows: 5× cell Luciferase cell culture lysis reagent from Promega (#E153A) diluted to 1× with dH2O, NaCl added to 150 mM final, the FRET peptide diluted to 20 uM final from a 2 mM stock.
To prepare plates, HCV replicon cells, with or without a Renilla luciferase reporter gene, were trypsinized and placed into each well of a 96-well plate with titrated test compounds added in columns 3 through 12; columns 1 and 2 contained a control compound (HCV protease inhibitor), and the bottom row contained cells without compound. The plates were then placed in a CO2 incubator at 37° C.
Assays. Subsequent to addition of the test compounds described above (FRET Assay Preparation), at various times the plate was removed and Alamar blue solution (Trek Diagnostics, #00-100) was added per well as a measure of cellular toxicity. After reading in a Cytoflour 4000 instrument (PE Biosystems), plates were rinsed with PBS and then used for FRET assay by the addition of 30 ul of the FRET peptide assay reagent described above (FRET Assay Preparation) per well. The plate was then placed into the Cytoflour 4000 instrument which had been set to 340 excite/490 emission, automatic mode for 20 cycles and the plate read in a kinetic mode. Typically, the signal to noise using an endpoint analysis after the reads was at least three-fold. Alternatively, after Alamar blue reading, plates were rinsed with PBS, 50 ul of DMEM (high glucose) without phenol red was added and plates were then used for luciferase assay using the Promega Dual-Glo Luciferase Assay System.
Compound analysis was determined by quantification of the relative HCV replicon inhibition and the relative cytotoxicity values. To calculate cytoxicity values, the average Alamar Blue fluorescence signals from the control wells were set as 100% non-toxic. The individual signals in each of the compound test wells were then divided by the average control signal and multiplied by 100% to determine […]. To calculate the HCV replicon inhibition values, an average background value was obtained from the two wells containing the highest amount of HCV protease inhibitor at the end of the assay period. These numbers were similar to those obtained from naïve Huh-7 cells.
The background numbers were then subtracted from the average signal obtained from the control wells and this number was used as 100% activity. The individual signals in each of the compound test wells were then divided by the averaged control values after background subtraction and multiplied by 100% to determine percent activity. EC50 values for a protease inhibitor titration were calculated as the concentration which caused a 50% reduction in FRET or luciferase activity. The two numbers generated for the compound plate, percent cytoxicity and percent activity were used to determine compounds of interest for further analysis.
For orientation: Replicon systems follow genome replication, usually without infectious particles.

The next assay has as its target T1, HCV NS5B (Hepatitis C virus genotype 1b, UniProt Q9WMX2).
T1 construct: The protein was expressed with an 18 amino acid C-terminal truncation to enhance the solubility; made in house; host or cells: E. coli BL21(DE3)
The assay is described as follows: Modified HCV NS5B RdRp enzyme assay (preincubation protocol). Type of assay: biochemical. The following applies: HCV NS5B RdRp genotype 1b. On the procedure:
HCV NS5B RdRp cloning, expression, and purification. The cDNA encoding the NS5B protein of HCV, genotype 1b, was cloned into the pET21a expression vector. The protein was expressed with an 18 amino acid C-terminal truncation to enhance the solubility. The E. coli competent cell line BL21(DE3) was used for expression of the protein. Cultures were grown at 37° C. for ˜4 hours until the cultures reached an optical density of 2.0 at 600 nm. The cultures were cooled to 20° C. and induced with 1 mM IPTG. Fresh ampicillin was added to a final concentration of 50 μg/ml and the cells were grown overnight at 20° C.
Cell pellets (3 L) were lysed for purification to yield 15-24 […] of purified NS5B. The lysis buffer consisted of 20 mM Tris-HCl, pH 7.4, 500 mM NaCl, 0.5% triton X-100, 1 mM DTT, 1 mM EDTA, 20% glycerol, 0.5 mg/ml lysozyme, 10 mM MgCl2, 15 ug/ml deoxyribonuclease I, and Complete TM protease inhibitor tablets (Roche). After addition of the lysis buffer, frozen cell pellets were resuspended using a tissue homogenizer. To reduce the viscosity of the sample, aliquots of the lysate were sonicated on ice using a microtip attached to a Branson sonicator. The sonicated lysate was centrifuged at 100,000×g for 1 hr at 4° C. and filtered through a 0.2 μm filter unit (Corning).
The protein was purified using three sequential chromatography steps: Heparin sepharose CL-6B, polyU sepharose 4B, and Hitrap SP sepharose (Pharmacia). The chromatography buffers were identical to the lysis buffer but contained no lysozyme, deoxyribonuclease I, MgCl2 or protease inhibitor and the NaCl concentration of the buffer was adjusted according to the requirements for charging the protein onto the column. Each column was eluted with a NaCl gradient which varied in length from 5-50 column volumes depending on the column type. After the final chromatography step, the resulting purity of the enzyme is >90% based on SDS-PAGE analysis. The enzyme was aliquoted and stored at −80° C.
Standard HCV NS5B RdRp enzyme assay. HCV RdRp genotype 1b assays were run in a final volume of 60 μl in 96 well plates (Costar 3912). The assay buffer is composed of 20 mM Hepes, pH 7.5, 2.5 mM KCl, 2.5 mM MgCl2, 1 mM DTT, 1.6 U RNAse inhibitor (Promega N2515), 0.1 mg/ml BSA (Promega R3961), and 2% glycerol. All compounds were serially diluted (3-fold) in DMSO and diluted further in water such that the final concentration of DMSO in the assay was 2%. HCV RdRp genotype 1b enzyme was used at a final concentration of 28 nM. A polyA template was used at 6 nM, and a biotinylated oligo-dT12 primer was used at 180 nM final concentration. Template was obtained commercially (Amersham 27-4110). Biotinylated primer was prepared by Sigma Genosys. 3H-UTP was used at 0.6 μCi (0.29 μM total UTP). Reactions were initiated by the addition of enzyme, incubated at 30° C. for 60 min, and stopped by adding 25 μl of 50 mM EDTA containing SPA beads (4 μg/μl, Amersham RPNQ 0007). Plates were read on a Packard Top Count NXT after >1 hr incubation at room temperature.
Modified HCV NS5B RdRp enzyme assay. A modified enzyme assay was performed essentially as described for the standard enzyme assay except for the following: The biotinylated oligo dTl2 primer was precaptured on streptavidin-coated SPA beads by mixing primer and beads in assay buffer and incubating at room temperature for one hour. Unbound primer was removed after centrifugation. The primer-bound beads were resuspended in 20 mM Hepes buffer, pH 7.5 and used in the assay at final concentrations of 20 nM primer and […] beads. Order of addition in the assay: enzyme (14 nM) was added to diluted compound followed by the addition of a mixture of template (0.2 nM), 3H-UTP (0.6 μCi, 0.29 μM), and primer-bound beads, to initiate the reaction; concentrations given are final. Reactions were allowed to proceed for 4 hours at 30° C.
IC50 values for compounds were determined using seven different. […]

What is called EC50 is the concentration at which the effect is half-maximal. A high value points to weaker potency. As a reminder, the IC50 is the concentration needed to halve the response being measured. Higher therefore signals weaker potency.

T1 sequence (Q9WMX2 2420-2992): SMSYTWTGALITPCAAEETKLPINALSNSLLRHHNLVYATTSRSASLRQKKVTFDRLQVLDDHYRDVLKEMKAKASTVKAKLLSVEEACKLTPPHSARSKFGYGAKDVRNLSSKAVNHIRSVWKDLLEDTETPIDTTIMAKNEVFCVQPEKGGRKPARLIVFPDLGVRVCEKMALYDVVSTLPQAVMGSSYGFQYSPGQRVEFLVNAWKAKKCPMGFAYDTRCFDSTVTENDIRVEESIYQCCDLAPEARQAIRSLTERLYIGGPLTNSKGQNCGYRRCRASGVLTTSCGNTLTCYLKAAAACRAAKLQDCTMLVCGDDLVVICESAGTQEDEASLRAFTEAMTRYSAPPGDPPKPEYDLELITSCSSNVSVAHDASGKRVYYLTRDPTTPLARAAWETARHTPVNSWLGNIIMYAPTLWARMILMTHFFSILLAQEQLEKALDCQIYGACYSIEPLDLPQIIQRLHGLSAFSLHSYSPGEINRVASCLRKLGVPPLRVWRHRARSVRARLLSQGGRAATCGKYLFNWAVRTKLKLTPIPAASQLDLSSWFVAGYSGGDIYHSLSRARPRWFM

In the case of `COc1ccc2c(c1)C1CN(Cc3ccccc3)CC1(C(=O)N1C[C@@H](C)O[C@@H](C)C1)Cn1c-2c(C2CCCCC2)c2ccc(C(=O)NS(=O)(=O)N(C)C)cc21` (mixture of isomers) [Example 1, rac-(3aR,14bR)-2-benzyl-10-cyclohexyl-3a-(((2S,6R)-2,6-dimethyl-4-morpholinyl)carbonyl)-N-(dimethylsulfamoyl)-13-methoxy-1,2,3,3a,4,14b-hexahydroindolo[2,1-a]pyrrolo[3,4-d][2]benzazepine-7-carboxamide], a half-maximal response in the assay with HCV replicon cells (EC50) required 210 nM. Moreover, inhibition against HCV NS5B was half-maximal at 430 nM (IC50).

Take `COc1ccc2c(c1)C1CNCC1(C(=O)N1C[C@@H](C)O[C@@H](C)C1)Cn1c-2c(C2CCCCC2)c2ccc(C(=O)NS(=O)(=O)N(C)C)cc21` (mixture of isomers) [Example 2, rac-(3aR,14bR)-10-cyclohexyl-3a-(((2S,6R)-2,6-dimethyl-4-morpholinyl)carbonyl)-N-(dimethylsulfamoyl)-13-methoxy-1,2,3,3a,4,14b-hexahydroindolo[2,1-a]pyrrolo[3,4-d][2]benzazepine-7-carboxamide]: the EC50 with HCV replicon cells (reported as class) was in the range of 20 to 500 nM. The same compound showed an IC50 against HCV NS5B (reported as class) of 20 to 500 nM.

For `COc1ccc2c(c1)C1CN(C)CC1(C(=O)N1C[C@@H](C)O[C@@H](C)C1)Cn1c-2c(C2CCCCC2)c2ccc(C(=O)NS(=O)(=O)N(C)C)cc21` (mixture of isomers) [Example 3, rac-(3aR,14bR)-10-Cyclohexyl-3a-(((2S,6R)-2,6-dimethyl-4-morpholinyl)carbonyl)-N-(dimethylsulfamoyl)-13-methoxy-2-methyl-1,2,3,3a,4,14b-hexahydroindolo[2,1-a]pyrrolo[3,4-d][2]benzazepine-7-carboxamide], the EC50 in the assay with HCV replicon cells (reported as class) lay in the range of 20 to 500 nM. Further, the IC50 against HCV NS5B (reported as class) fell in the range of 20 to 500 nM.

`COc1ccc2c(c1)C1CN(C(C)=O)CC1(C(=O)N1C[C@@H](C)O[C@@H](C)C1)Cn1c-2c(C2CCCCC2)c2ccc(C(=O)NS(=O)(=O)N(C)C)cc21` (mixture of isomers) [Example 4, rac-(3aR,14bR)-2-Acetyl-10-cyclohexyl-3a-(((2S,6R)-2,6-dimethyl-4-morpholinyl)carbonyl)-N-(dimethylsulfamoyl)-13-methoxy-1,2,3,3a,4,14b-hexahydroindolo[2,1-a]pyrrolo[3,4-d][2]benzazepine-7-carboxamide] gave an EC50 in the assay with HCV replicon cells (reported as class) of 20 to 500 nM. Further, the IC50 against HCV NS5B (reported as class) lay in the range of 20 to 500 nM.

Take `COc1ccc2c(c1)C1CN(C(C)C)CC1(C(=O)N1C[C@@H](C)O[C@@H](C)C1)Cn1c-2c(C2CCCCC2)c2ccc(C(=O)NS(=O)(=O)N(C)C)cc21` (mixture of isomers) [Example 5, rac-(3aR,14bR)-10-Cyclohexyl-3a-(((2S,6R)-2,6-dimethyl-4-morpholinyl)carbonyl)-N-(dimethylsulfamoyl)-2-isopropyl-13-methoxy-1,2,3,3a,4,14b-hexahydroindolo[2,1-a]pyrrolo[3,4-d][2]benzazepine-7-carboxamide]: in the assay on HCV replicon cells, the EC50 came out at 120 nM. Moreover, at HCV NS5B, the IC50 amounted to 200 nM.

As for `COc1ccc2c(c1)C1CN(Cc3ccccc3)CC1(C(=O)N(C)C)Cn1c-2c(C2CCCCC2)c2ccc(C(=O)NS(=O)(=O)N(C)C)cc21` (racemic) [Example 6, rac-(3aR,14bR)-2-benzyl-10-cyclohexyl-N^7-(dimethylsulfamoyl)-13-methoxy-N^3a,N^3a-dimethyl-1,2,3,14b-tetrahydroindolo[2,1-a]pyrrolo[3,4-d][2]benzazepine-3a,7(4H)-dicarboxamide], the EC50 with HCV replicon cells (reported as class) was in the range of 20 to 500 nM. Besides, the IC50 against HCV NS5B (reported as class) lay within 20 to 500 nM.

For `COc1ccc2c(c1)C1CNCC1(C(=O)N(C)C)Cn1c-2c(C2CCCCC2)c2ccc(C(=O)NS(=O)(=O)N(C)C)cc21` (racemic) [Example 7, rac-(3aR,14bR)-10-cyclohexyl-N^7-(dimethylsulfamoyl)-13-methoxy-N^3a,N^3a-dimethyl-1,2,3,14b-tetrahydroindolo[2,1-a]pyrrolo[3,4-d][2]benzazepine-3a,7(4H)-dicarboxamide], the EC50 in the assay with HCV replicon cells was 22 nM. On HCV NS5B, the IC50 came out at 41 nM.

Take `COc1ccc2c(c1)C1CN(C(=O)N(C)C)CC1(C(=O)N(C)C)Cn1c-2c(C2CCCCC2)c2ccc(C(=O)NS(=O)(=O)N(C)C)cc21` (racemic) [Example 8, rac-(3aR,14bR)-10-cyclohexyl-N^7-(dimethylsulfamoyl)-13-methoxy-N^2,N^2,N^3a,N^3a-tetramethyl-1,14b-dihydroindolo[2,1-a]pyrrolo[3,4-d][2]benzazepine-2,3a,7(3H,4H)-tricarboxamide]: the EC50 with HCV replicon cells (reported as class) lay within 20 to 500 nM. This compound came in with a concentration for half-maximal inhibition (IC50) against HCV NS5B (reported as class) of 20 to 500 nM.

In turn, `COc1ccc2c(c1)C1CN(C(C)=O)CC1(C(=O)N(C)C)Cn1c-2c(C2CCCCC2)c2ccc(C(=O)NS(=O)(=O)N(C)C)cc21` (racemic) [Example 9, rac-(3aR,14bR)-2-acetyl-10-cyclohexyl-N^7-(dimethylsulfamoyl)-13-methoxy-N^3a,N^3a-dimethyl-1,2,3,14b-tetrahydroindolo[2,1-a]pyrrolo[3,4-d][2]benzazepine-3a,7(4H)-dicarboxamide] returned a concentration giving a half-maximal response (EC50) in the assay on HCV replicon cells (reported as class) of 20 to 500 nM. The IC50 at HCV NS5B (reported as class) is 20 to 500 nM.
